Measurements published in ChEMBL document CHEMBL1201862, “PubChem BioAssay data set” (2004).
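Five concentrations, 48 hours, 96-well plates. GI50 is the concentration that inhibits growth by half.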 Activity calls are given as the source filed them. No stated cut-off is given here; in the data, active = GI50 up to about 1.1 µM and inactive = higher.

Columns and labels:
Assay in all cases: DTP human tumour cell line panel, 48 h
UO-31 = test system: UO-31
NCI-H522 = test system: NCI-H522
NCI-H460 = test system: NCI-H460
RPMI-8226 = test system: RPMI-8226
EKVX = test system: EKVX
SF-539 = test system: SF-539
Malme-3M = test system: Malme-3M
SF-268 = test system: SF-268
SW-620 = test system: SW-620
CAKI-1 = test system: CAKI-1
IGROV-1 = test system: IGROV-1
SR = test system: SR
MDA-N = test system: MDA-N
HL-60 = test system: HL-60
HCT-116 = test system: HCT-116
SK-OV-3 = test system: SK-OV-3
MDA-MB-435 = test system: MDA-MB-435
OVCAR-4 = test system: OVCAR-4
TK-10 = test system: TK-10
KM12 = test system: KM12
OVCAR-8 = test system: OVCAR-8
COLO 205 = test system: COLO 205
HCC 2998 = test system: HCC 2998
A498 = test system: A498
SNB-19 = test system: SNB-19
HOP-62 = test system: HOP-62
SF-295 = test system: SF-295
MDA-MB-231 = test system: MDA-MB-231
K562 = test system: K562
MCF7 = test system: MCF7
786-0 = test system: 786-0
NCI/ADR-RES = test system: NCI/ADR-RES
CCRF-CEM = test system: CCRF-CEM
HCT-15 = test system: HCT-15
A549 = test system: A549
OVCAR-5 = test system: OVCAR-5
ACHN = test system: ACHN
BT-549 = test system: BT-549
UACC-257 = test system: UACC-257
SK-MEL-28 = test system: SK-MEL-28
PC-3 = test system: PC-3
Hs-578T = test system: Hs-578T
U-251 = test system: U-251
SK-MEL-5 = test system: SK-MEL-5
OVCAR-3 = test system: OVCAR-3
NCI-H226 = test system: NCI-H226
SN12C = test system: SN12C
M14 = test system: M14
DU-145 = test system: DU-145
RXF 393 = test system: RXF 393
SK-MEL-2 = test system: SK-MEL-2
HT-29 = test system: HT-29
UACC-62 = test system: UACC-62
HOP-92 = test system: HOP-92
MOLT-4 = test system: MOLT-4
T47D = test system: T47D
NCI-H23 = test system: NCI-H23
LOX IMVI = test system: LOX IMVI

Measured: GI50

CC1=C(C(=O)OCCO[N+](=O)[O-])C(c2cccc([N+](=O)[O-])c2)C(C(=O)OC(C)C)=C(C)N1 (stereo not given)
14.1 µM: HCT-15
inactive: UO-31 12.6 µM | NCI-H522 17.8 µM | NCI-H460 13.8 µM | RPMI-8226 2.58 µM | EKVX 16.8 µM | SF-539 14.2 µM | Malme-3M 17.7 µM | SF-268 13.1 µM | SW-620 22.3 µM | CAKI-1 17.6 µM | IGROV-1 14 µM | SR 24.8 µM | MDA-N 14.9 µM | HL-60 > 100 µM | HCT-116 10.5 µM | SK-OV-3 16.7 µM | MDA-MB-435 15.2 µM | OVCAR-4 3.76 µM | TK-10 14.9 µM | KM12 11 µM | OVCAR-8 16.1 µM | COLO 205 10.7 µM | HCC 2998 15.7 µM | A498 19.4 µM | SNB-19 19.2 µM | HOP-62 16.6 µM | SF-295 11.4 µM | MDA-MB-231 13.3 µM | K562 18.2 µM | MCF7 19.6 µM | 786-0 13.3 µM | NCI/ADR-RES 10.5 µM | CCRF-CEM 29.9 µM | A549 12.9 µM | OVCAR-5 14.9 µM | ACHN 14.2 µM | BT-549 14 µM | UACC-257 12.3 µM | SK-MEL-28 14.3 µM | PC-3 4.25 µM | Hs-578T 7.71 µM | U-251 14.9 µM | SK-MEL-5 12.8 µM | OVCAR-3 10.4 µM | NCI-H226 8.95 µM | SN12C 17.4 µM | M14 16 µM | DU-145 25.3 µM | RXF 393 13.8 µM | SK-MEL-2 13 µM | HT-29 15.2 µM | UACC-62 14.5 µM | HOP-92 11 µM | MOLT-4 3.23 µM | T47D 15.6 µM | NCI-H23 17.6 µM | LOX IMVI 16.9 µM

C[C@H]1CC[C@H]([C@@H](C)[C@H]2[C@@H](O)C[C@H]3[C@@H]4CC[C@H]5C[C@@H](O)CC[C@]5(C)[C@H]4CC[C@]23C)NC1
inactive: UO-31 13.9 µM | NCI-H522 15.8 µM | NCI-H460 20.2 µM | RPMI-8226 7.31 µM | EKVX 16.3 µM | SF-539 23.6 µM | Malme-3M 15.7 µM | SF-268 23.1 µM | SW-620 18.7 µM | CAKI-1 16.1 µM | IGROV-1 19.2 µM | SR 6.34 µM | MDA-N 21.3 µM | HL-60 4.45 µM | HCT-116 15.6 µM | SK-OV-3 15.9 µM | MDA-MB-435 16.7 µM | OVCAR-4 15.8 µM | TK-10 18.3 µM | KM12 15.2 µM | OVCAR-8 15 µM | COLO 205 19.6 µM | HCC 2998 18.6 µM | A498 17.4 µM | SNB-19 23.5 µM | HOP-62 23.7 µM | SF-295 16.9 µM | MDA-MB-231 21.2 µM | MCF7 21.9 µM | 786-0 18.9 µM | NCI/ADR-RES 14.7 µM | CCRF-CEM 5.53 µM | A549 17 µM | OVCAR-5 19.3 µM | ACHN 21.2 µM | BT-549 17.5 µM | UACC-257 18.4 µM | SK-MEL-28 18.7 µM | PC-3 12.4 µM | Hs-578T 27.1 µM | U-251 15.8 µM | SK-MEL-5 21.3 µM | OVCAR-3 18.7 µM | NCI-H226 18.1 µM | SN12C 16.3 µM | M14 24.2 µM | DU-145 16.2 µM | RXF 393 20.6 µM | SK-MEL-2 19.6 µM | HT-29 18.1 µM | UACC-62 14.6 µM | HOP-92 14.5 µM | MOLT-4 9.66 µM | T47D 12.6 µM | NCI-H23 15.5 µM | LOX IMVI 19.2 µM
17 µM: HCT-15
